Assay results as given in patent US20190297885A1 (Dow Global Technologies LLC, priority 2016, published 2019).

Tested on: Chlorella sp. ATCC 7516
Experiment: Algal efficacy testing of dry paint films (modified ASTM 5589, 6-well plates)
Format: cell-based
Conditions: 504 h
Procedure: These paints were then diluted with a biocide free acrylic/silicone based paint and mixed to prepare targeted concentrations of biocide combinations for the testing. The total biocides concentrations obtained were 125, 250, 500, 1000, 2000 and 5000 ppm. After biocides addition or dilution, the paints were mixed 90 seconds with the horse power shaker (AXEL 75M3372/Agitateur SO-10MI) until uniformity was achieved. […] After one day, the paints were applied to Schleicher & Schuell filter paper at 280 μm wet film thickness and dried for 3 days at room temperature avoiding direct exposure to sunlight. Square discs (1.8 cm×1.8 cm) were cut out from each panel and were used as the substrate for algal efficacy tests. This sample size allowed for an agar border when the sample disc was placed into the well of the test plate.
Algal efficacy was tested according to modified ASTM 5589 which is a standard accelerated test method for determining resistance of various coatings (including paints) to algal defacement. To accommodate for high-throughput screening, this method was scaled down from petri plates to 6-well plates. […]
At the end of the incubation period the samples were scored for percent inhibition regarding color intensity compared to the blank sample
The SI is calculated based on F. C. […]

| SMILES | inhibition at 1000 ppm [%] | inhibition at 10000 ppm (Total conc 10,000 ppm in paint, three weeks, color intensity vs blank, pass level 75%) [%] |
| --- | --- | --- |
| O=c1[nH]c2c(c(=O)n1C1CCCCC1)CCC2 [Lenacil, 3-Cyclohexyl-6,7-dihydro-1H-cyclopentapyrimidine-2,4-(3H,5H)-dione] | 90 | – |
| N#Cc1c(Cl)c(Cl)c(Cl)c(C#N)c1Cl [Chlorothalonil, 2,4,5,6-tetrachloroisophthalonitrile] | – | 15 |
